Experiments:
K562 CRISPRi cells [1] = test: Perturb-seq pooled growth measurement (sgRNA counts, growth phenotype γ, relative activity); type: cell-based, human; conditions: for gamma_day5 / gamma_day10: pooled growth phenotype γ of the Perturb-seq sgRNA; for gamma_day5: day 5, K562 CRISPRi cells; for gamma_day10: day 10, K562 CRISPRi cells; for relative_activity_day5: γ relative to perfectly matched sgRNA (_00) of the same gene, day 5
How it was run: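 CRISPRi K562 cells from the Perturb-seq transduced pool; 500,000-cell samples taken days two, seven and twelve post-transduction. sgRNA amplicons from genomic DNA sequenced; growth phenotypes from normalized sgRNA abundances at days seven and twelve versus day two. Relative activity assigned from day seven (five days' growth).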

K562 CRISPRi cells [2] = test: as above; type: cell-based, human; conditions: γ relative to perfectly matched sgRNA (_00) of the same gene, day 10

Substance | gamma_day5 (K562 CRISPRi cells [1]) | gamma_day10 (K562 CRISPRi cells [1]) | relative_activity_day5 (K562 CRISPRi cells [1]) | relative_activity_day10 (K562 CRISPRi cells [2])
HSPA9_ −_137911079.23-P1P2_07 (guide GGAGCTGCGGGATGCGGTGG; listed as DNA, chemistry not fully specified) | −0.8109 | −0.5036 | 0.8537 | 0.8547
HSPA9_ −_137911079.23-P1P2_08 (guide GGAGCTGCTCGATGCGGTGG; listed as DNA, chemistry not fully specified) | −0.3582 | −0.2762 | 0.3771 | 0.4688
HSPE1_ + _198365089.23-P1P2_00 (guide GGAGACTCGCAGTCCGGCCC; listed as DNA, chemistry not fully specified) | −0.7018 | −0.5672 | 1 | 1
HSPE1_ + _198365089.23-P1P2_01 (guide GGAGACACGCAGTCCGGCCC; listed as DNA, chemistry not fully specified) | −0.616 | −0.4834 | 0.8777 | 0.8523
HSPE1_ + _198365089.23-P1P2_02 (guide GGAGACTGGCAGTCCGGCCC; listed as DNA, chemistry not fully specified) | −0.4365 | −0.3565 | 0.622 | 0.6285
HSPE1_ + _198365089.23-P1P2_03 (guide GGTGACTCGCAGTCCGGCCC; listed as DNA, chemistry not fully specified) | −0.6427 | −0.465 | 0.9158 | 0.8198
HSPE1_ + _198365089.23-P1P2_14 (guide GGAGACTCGCAGTCCTGCCC; listed as DNA, chemistry not fully specified) | −0.2088 | −0.1965 | 0.2975 | 0.3465
MTOR_ + _11322547.23-P1P2_00 (guide GGGCAGGGGGCCTGAAGCGG; listed as DNA, chemistry not fully specified) | −0.6872 | −0.5618 | 1 | 1
MTOR_ + _11322547.23-P1P2_05 (guide GGGCAGGGGGCTTGAAGCGG; listed as DNA, chemistry not fully specified) | −0.4313 | −0.3448 | 0.6275 | 0.6137
MTOR_ + _11322547.23-P1P2_06 (guide GGGCAGGGGGGCTGAAGCGG; listed as DNA, chemistry not fully specified) | −0.3933 | −0.2989 | 0.5723 | 0.532
MTOR_ + _11322547.23-P1P2_07 (guide GGGCAGGGGGTCTGAAGCGG; listed as DNA, chemistry not fully specified) | −0.5893 | −0.4799 | 0.8576 | 0.8541
MTOR_ + _11322547.23-P1P2_10 (guide GGGCAGGGGGCCTGAAGCAG; listed as DNA, chemistry not fully specified) | −0.3048 | −0.2327 | 0.4435 | 0.4141
POLR1D_ + _28196016.23-P1_00 (guide GGGAAGCAAGGACCGACCGA; listed as DNA, chemistry not fully specified) | −0.7594 | −0.6213 | 1 | 1
POLR1D_ + _28196016.23-P1_01 (guide GGGAAGCCAGGACCGACCGA; listed as DNA, chemistry not fully specified) | −0.6945 | −0.5416 | 0.9145 | 0.8718
POLR1D_ + _28196016.23-P1_03 (guide GGTAAGCAAGGACCGACCGA; listed as DNA, chemistry not fully specified) | −0.8471 | −0.6833 | 1.116 | 1.1
POLR1D_ + _28196016.23-P1_07 (guide GGGAAGCAAGGAGCGACCGA; listed as DNA, chemistry not fully specified) | −0.3019 | −0.243 | 0.3976 | 0.3911
POLR1D_ + _28196016.23-P1_08 (guide GGGAAGCAGGGACCGACCGA; listed as DNA, chemistry not fully specified) | −0.8088 | −0.6317 | 1.065 | 1.017

Substance | gamma_day5 (K562 CRISPRi cells [1]) | gamma_day10 (K562 CRISPRi cells [1]) | relative_activity_day5 (K562 CRISPRi cells [1]) | relative_activity_day10 (K562 CRISPRi cells [2])
POLR2H_ + _184081251.23-P1P2_00 (guide GGGGCCACGAGAGCAGCAGA; listed as DNA, chemistry not fully specified) | −1.149 | −0.6391 | 1 | 1
POLR2H_ + _184081251.23-P1P2_07 (guide GGGGCCACGAGTGCAGCAGA; listed as DNA, chemistry not fully specified) | −0.1894 | −0.1426 | 0.1648 | 0.223
POLR2H_ + _184081251.23-P1P2_08 (guide GGGGCCACGCGAGCAGCAGA; listed as DNA, chemistry not fully specified) | −0.5208 | −0.334 | 0.4532 | 0.5225
POLR2H_ + _184081251.23-P1P2_11 (guide GGGGCCACGAGAGCAGCGGA; listed as DNA, chemistry not fully specified) | −0.9966 | −0.5467 | 0.8672 | 0.8554
POLR2H_ + _184081251.23-P1P2_12 (guide GGGGCCACGAGAGCAGGAGA; listed as DNA, chemistry not fully specified) | −0.3516 | −0.2298 | 0.306 | 0.3595
RAN_ + _131356438.23-P1P2_00 (guide GGCGGTCGCTGCGCTTAGGG; listed as DNA, chemistry not fully specified) | −0.1974 | −0.1615 | 1 | 1
RAN_ + _131356438.23-P1P2_02 (guide GGCGGCCGCTGCGCTTAGGG; listed as DNA, chemistry not fully specified) | −0.2316 | −0.2041 | 1.173 | 1.264
RAN_ + _131356438.23-P1P2_03 (guide GGGGGTCGCTGCGCTTAGGG; listed as DNA, chemistry not fully specified) | −0.2162 | −0.197 | 1.095 | 1.22
RAN_ + _131356438.23-P1P2_04 (guide GGCGGTCGCGGCGCTTAGGG; listed as DNA, chemistry not fully specified) | −0.0859 | −0.08721 | 0.4352 | 0.5401
RAN_ + _131356438.23-P1P2_12 (guide GGCGGTCGCTGCGCTTAGGT; listed as DNA, chemistry not fully specified) | −0.04655 | −0.03426 | 0.2358 | 0.2122
RPL9_ + _39460483.23-P1P2_00 (guide GGATGTTTCTGTGCTCGTGG; listed as DNA, chemistry not fully specified) | −1.113 | −0.6699 | 1 | 1
RPL9_ + _39460483.23-P1P2_01 (guide GGATGATTCTGTGCTCGTGG; listed as DNA, chemistry not fully specified) | −0.8528 | −0.4984 | 0.7661 | 0.7441
RPL9_ + _39460483.23-P1P2_04 (guide GGATGTTTCAGTGCTCGTGG; listed as DNA, chemistry not fully specified) | −0.4171 | −0.2942 | 0.3747 | 0.4392
RPL9_ + _39460483.23-P1P2_05 (guide GGATGTTTCGGTGCTCGTGG; listed as DNA, chemistry not fully specified) | −0.6073 | −0.3848 | 0.5456 | 0.5745
RPL9_ + _39460483.23-P1P2_07 (guide GGATGTTTCTGCGCTCGTGG; listed as DNA, chemistry not fully specified) | −0.2924 | −0.2073 | 0.2627 | 0.3095
RPS14_ + _149829238.23-P1P2_00 (guide GAGGCCCGGGCGCGACAATC; listed as DNA, chemistry not fully specified) | −0.7908 | −0.4995 | 1 | 1

Reference: US20220259593A1, “CONTROL OF MAMMALIAN GENE DOSAGE USING CRISPR” (The Regents of the University of California, priority 2019, published 2022)
